# Paper PMC4682109, “The experimental power of FR900359 to study Gq-regulated biological processes” (Nature Communications, 2015)
# Read-outs that look alike come from different tables or passages of the source. Starred links: 1 amine or outer side, 2 acyl side, 3 side chain; linkers in the order of their positions; H or OH if unused. Positions of bridges follow the written chain, without caps; N, C: chain ends. Non-standard residues stand in square brackets, D forms with d. Residues, ends and D or L forms follow the SMILES beside them. ξ: configuration not given here. *: point of attachment. Leu(3R-OH,Nα-propionyl) = CCC(=O)N[C@H](C(=O)*)[C@H](O)C(C)C; X1 = CC(C)[C@@H](O[*:3])[C@H](N[*:1])C(=O)[*:2]; NMeT = CN[C@H](C(=O)O)[C@@H](C)O; dPhLac = O=C(O)[C@H](O)Cc1ccccc1; NMeA = CN[C@@H](C)C(=O)O; NMeDha = C=C(NC)C(=O)O; ξNMeA = CNC(C)C(=O)O
# How the values were obtained:
# [1] = system: Gi-sensitive prostaglandin D2 receptor DP2/CRTH2; assay: cAMP lowering (HTRF), Gi-sensitive CRTH2 in CRTH2-HEK293; assay type: cell-based; settings: CRTH2-RLuc-GFP2-β-arrestin2-HEK293, PTX pretreatment
# Method: (§1) Quantification of intracellular cAMP and IP1 was performed using the HTRF-cAMP dynamic kit and the HTRF-IP1 kit, respectively, on a Mithras LB 940 reader (Berthold Technologies) according to the manufacturer's instructions. For cAMP assays with M2-CHO cells, the Gi-biased muscarinic agonist iper-6-phth (ref. [30]) was applied.
# [2] = system: CRTH2 β-arrestin2 recruitment; assay: BRET2 β-arrestin2 recruitment to CRTH2; assay type: cell-based; settings: CRTH2-RLuc-GFP2-β-arrestin2-HEK293; PTX 16-20 h, FR 30 min
# Method: For BRET^2 assays on HEK293 cells stably expressing CRTH2-Luc and GFP^2-β-arrestin2, cells were detached and resuspendend in HBSS with 20 mM HEPES at a density of 1.06 × 10^6 cells per ml. Cell suspension (170 μl) was distributed into white 96-well microplates and incubated in the presence of 10 μl buffer or agonist for 5 min before substrate addition. DeepBlueC coelenterazine (Gold Biotechnology, MO, USA; 20 μl per well) was injected by injector 3 to yield a final concentration of 5 μM. To detect BRET, light emissions at 400 and 515 nm were measured sequentially using a Mithras LB 940 instrument. The BRET signal (BRET ratio) was determined by calculating the ratio of the light emitted by the fluorescence acceptor (515 nm) and the light emitted by Rluc (400 nm). The cells were pretreated with PTX for 16–20 h and FR for 30 min.
# [3] = system: HEK293 Gαq/11 knockout cells; assay: Annexin V flow cytometry in HEK293 Gαq/11 knockout cells; assay type: cell-based; settings: FR 10 μM, 72 h; representative experiment
# Excerpt: For apoptosis analysis of HEK293 cells, cells were stained for Annexin V by use of the Annexin V-FITC Apoptosis Detection Kit (Calbiochem) according to the manufacturer's instructions.
# [4] = target: T1, purified recombinant Gαq (GαqΔ34) (Mus musculus, UniProt P21279); assay: [3H]GDP dissociation from purified Gαq; assay type: biochemical
# T1 construct: first 28 residues of rat Gαi1 (GNAI1, P10824 by own knowledge) (N); TEV-cleavage site (N); made in house; host or cells: insect cells (Sf9), pFastBac1 vector
# T1 sequence (P21279 35-359): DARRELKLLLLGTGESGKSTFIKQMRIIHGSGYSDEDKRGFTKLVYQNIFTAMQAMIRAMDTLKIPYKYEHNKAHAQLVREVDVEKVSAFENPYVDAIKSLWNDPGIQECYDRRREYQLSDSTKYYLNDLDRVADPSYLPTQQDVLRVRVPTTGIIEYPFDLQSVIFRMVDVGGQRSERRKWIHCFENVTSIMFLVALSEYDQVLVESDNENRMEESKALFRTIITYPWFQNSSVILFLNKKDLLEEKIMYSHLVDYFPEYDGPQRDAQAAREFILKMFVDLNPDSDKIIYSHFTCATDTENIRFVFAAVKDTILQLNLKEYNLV
# Method: GαqΔ34 (containing the first 28 residues of rat Gαi1 fused to mouse Gαq lacking the first 34 residues, and with a TEV-cleavage site between the Gαi1 and Gαq sequences) was purified after expression from a pFastBac1 vector in insect cells. Purified GαqΔ34 (∼7 mg ml^−1) was stored at −80 °C in 20 mM HEPES pH 8, 0.2 mM dithiothreitol, 2% (v/v) glycerol, 100 mM NaCl, 0.1 mg ml^−1 PMSF augmented with 10 mM NaF, 30 μM AlCl3, and 5 mM MgCl2.
# [^3H]GDP exchange by Gαq was measured based on previous protocols. Briefly, purified GαqΔ34 (100 nM) was incubated with 1 μM [^3H]GDP (42,500 c.p.m. pmol^−1) and 50 mM (NH4)2SO4 for 18 h at 20 °C in assay buffer A (50 mM HEPES pH 7.5, 1 mM EDTA, 0.9 mM MgSO4, 1 mM dithiothreitol, and 0.05% Genapol C-100). Excess [^3H]GDP was removed from Gαq using a ZebaTM spin desalting column following the manufacturer's protocol (Thermo Scientific). Approximately 20% of Gαq incorporated the radiolabelled nucleotide. The reaction mixtures were then mixed with the same volume of assay buffer A in the presence of 0.1–2% dimethylsulphoxide (DMSO), 0–200 nM FR and 1.5 M (NH4)2SO4 to reach final concentrations of […] DMSO, 0–100 nM FR and 750 mM (NH4)2SO4 in the reaction. Dissociation of [^3H]GDP was monitored at 20 °C by stopping the reaction by addition of 4 ml of an ice-cold wash buffer (20 mM Tris pH 8.0, 100 mM NaCl and 2 mM MgSO4). The quenched mixtures were filtered through nitrocellulose membranes, the membranes were washed four times with ice-cold wash buffer, and the filters air-dried for at least 10 min. Radioactivity was quantified by scintillation spectrometry.
# Supplementary Table 1: logEC values of the inhibitory effect of FR on [3H]GDP dissociation were
# independent of the time point used for quantification.
# [3H]GDP binding to purified Gαq proteins was quantified in presence of increasing concentrations of FR
# after four different time points (30 min, 60 min, 90 min, 120 min). Data were analyzed by fitting [3H]GDP
# binding versus FR concentration to the four parameter logistic function and the logarithm of the half
# maximal effective concentrations (logEC50 expressed as means ± SEM from the respective curves in Fig.
# 7h) for FR-induced inhibition of [3H]GDP dissociation are presented.
# [5] = system: B16 cells; assay: XTT metabolic activity of B16 cells; assay type: cell-based, mouse; settings: 72 h of FR treatment
# Method: (§2) B16 cell viability in the presence of various concentrations of FR was measured using the XTT-based cell proliferation kit II (Fa. Roche) according to the manufacturer's protocols. Viability of HEK293 cell lines was assessed using a fluorimetric detection of resorufin (CellTiter-Blue Cell Viability Assay, Promega). Specifically, Gαq/11 ko-HEK293 and HEK293 cells were seeded at a density of 20,000 and 25,000 cells per well into black 96-well poly-D-lysine-coated plates with clear bottom, respectively. Three hours after seeding cells were treated with 0.3% DMSO or FR dissolved in medium for 24 h. To detect cell viability, CellTiter-Blue reagent was added and cells were incubated for 1 h at 37 °C according to the manufacturer's instructions. Fluorescence (excitation 560 nm, emission 590 nm) was measured using a FlexStation 3 Benchtop Multimode Plate Reader and data were expressed as percentage of cell viability relative to DMSO control.
# [6] = system: HEK293 Gαq/11 knockout cells; assay: Cell growth and Ki67 staining in HEK293 Gαq/11 knockout cells; assay type: cell-based; settings: FR 10 μM
# Method: For analysis of growth properties of HEK293 cells, 10^5 HEK 293 cells per well were seeded on a 6-well tissue culture plate. After 3 h cells were treated with either 10 μmol FR or 0.1% DMSO. After 72 h cell number was determined by counting in a Neubauer chamber.
# Cells grown on coverslips were fixed with 4% paraformaldehyde in PBS and stained with antibodies as follows (in 0.2% Triton X in PBS, supplemented with 5% donkey serum; 2 h at room temperature): Ki67 MIB-1 (1:200, Covance) and vimentin (1:1,000, Chemicon). Primary antibodies were visualized by secondary antibodies conjugated to Cy5 (1:400, Jackson ImmunoResearch) diluted in 1 μg ml^−1 Hoechst 33342 (nuclei staining) at room temperature for 1 h. For documentation an inverted fluorescence microscope (Axiovert 200; Carl Zeiss MicroImaging, Inc.) equipped with a slider module (ApoTome; Carl Zeiss MicroImaging, Inc.), using filters for DAPI, GFP, Cy3 and Cy5, x25, x40 DIC Plan Apochromat oil objectives, an ebx 75 light source and an AxioCam MRm digital camera was used. Pictures were generated with the Axiovision Rel. 4.8 software (Zeiss).
# [7] = target: T2, Gq (Cricetulus griseus, UniProt Q3HR10); assay: IP1 accumulation in M1-CHO cells, carbachol; assay type: cell-based, Chinese hamster; settings: carbachol 30 µM, means ± SEM of at least three experiments, read-out: pIC50, IP1 (% of 30 µM carbachol) (converted)
# T2 construct: endogenous in cells; host or cells: M1-CHO cells
# T2 sequence (Q3HR10 1-359): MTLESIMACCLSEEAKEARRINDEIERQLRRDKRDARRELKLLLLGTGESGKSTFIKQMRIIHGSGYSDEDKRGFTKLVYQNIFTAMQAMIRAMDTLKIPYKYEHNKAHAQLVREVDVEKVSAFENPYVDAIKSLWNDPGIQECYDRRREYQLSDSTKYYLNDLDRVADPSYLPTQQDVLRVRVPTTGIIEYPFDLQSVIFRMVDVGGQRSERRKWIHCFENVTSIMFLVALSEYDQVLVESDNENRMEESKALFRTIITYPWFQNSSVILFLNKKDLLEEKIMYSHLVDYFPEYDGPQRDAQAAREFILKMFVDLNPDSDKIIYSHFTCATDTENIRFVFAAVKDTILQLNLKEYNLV
# Method: as §1
# Supplementary Figure 12: Catalytic hydrogenation of FR to produce “FR-red” and determination of its Gq-inhibitory activity. (a) The exocyclic double bond (yellow box) of FR was hydrogenated by hydrogen gas in the presence of palladium/carbon as a catalyst in a pressure tube in analogy to a procedure published for the hydrogenation of YM2. The structure of the product FR-red was confirmed by high performance liquid chromatography coupled to electrospray ionization mass spectrometry (LCMS) and by 1H- and 13C-NMR spectra. (b) M1-CHO cells were pre-incubated with increasing concentrations of FR or (also on this page, place not known: “FR -red” hydrogen ation YM 2. -red FR a b -8 -7 -6 -5 0 25 50 75 100 FR compound (log M) IP1 (% of 30 µM carbachol) FR FR-red)
# (1 picture or pasted object on this page, not shown here)
# FR-red and IP1 accumulation was determined in response to carbachol (30 µM). Inhibition of Gq protein […]
# ± 0.05). Data are means ± SEM of at least three independent experiments each performed in triplicate.
# [8] = system: HEK293 wild type and HEK293 Gαq/11 knockout cells; assay: Cell viability (CellTiter-Blue, resazurin) in HEK293 wild type and Gαq/11 knockout cells; assay type: cell-based; settings: supramaximal FR concentrations, 24 h
# Method: as §2
# [9] = system: ERK1/2; assay: HTRF-based ERK1/2 phosphorylation assay in melanoma cell lines; set-up: species or system human and mouse; settings: 1 μM, 1 h
# Method: Quantification of phosphorylated ERK1/2 levels was performed using the phospho-ERK (Thr202/Tyr204) cellular assay kit (Cisbio). Melanoma cells were seeded into 96-well plates at a density of 25,000 or 50,000 cells per well and cultured overnight. The next day, medium was aspirated and cells were treated with 1 μM FR, 1 μM Trametinib, 1 μM Vemurafenib, or medium for 1 h at 37 °C. Subsequently, medium and inhibitors were removed and 50 μl lysis buffer were added to each well. The plates were incubated for 30 min at room temperature with shaking to lyse the cells and then frozen overnight at −20 °C. Lysates (16 μl) were transferred to a white 384-well plate. Anti-phospho-ERK1/2-d2 (2 μl) and anti-phospho-ERK1/2-Eu3^+-cryptate (2 μl) were added to each well and plates were incubated in the dark for 2 h at room temperature. Time-resolved fluorescence resonance energy transfer (FRET) signals were measured using the Mithras LB 940 multimode reader (Berthold Technologies).
compound,measurement,setting,value
pertussis toxin [PTX],CRTH2-dependent lowering of cAMP,[1],fully prevented
same,PGD2-induced β-arrestin recruitment to CRTH2,[2],without effect
"C=C1C(=O)N[C@@H](C)C(=O)N(C)[C@@H](C)C(=O)N[C@@H]([C@H](OC(=O)[C@@H](NC(=O)CC)[C@H](O)C(C)C)C(C)C)C(=O)N(C)[C@@H]([C@@H](C)OC)C(=O)O[C@H](C(C)C)[C@H](NC(C)=O)C(=O)O[C@H](Cc2ccccc2)C(=O)N1C [FR, FR900359] (Ac-[X1][dPhLac][NMeDha]A[NMeA][X1](Leu(3R-OH,Nα-propionyl))[NMeT](Me); ester 1-C)",Annexin V,[3],2.06%
same,EC50,"[4]; [3H]GDP binding to Gαq after 120 min dissociation, 20 °C, read-out: half effective concentration, prevention of [3H]GDP dissociation",15 nM
same,EC50,"[4]; time 30 min, read-out: logEC50, inhibition of [3H]GDP dissociation (converted)",15.5 nM
same,EC50,"[4]; time 60 min, read-out: logEC50, inhibition of [3H]GDP dissociation (converted)",12.3 nM
same,EC50,"[4]; time 90 min, read-out: logEC50, inhibition of [3H]GDP dissociation (converted)",13.2 nM
same,EC50,"[4]; time 120 min, read-out: logEC50, inhibition of [3H]GDP dissociation (converted)",15.5 nM
same,mitochondrial metabolism (XTT),[5],did not compromise mitochondrial metabolism
same,percentage of proliferating cells (Ki67),[6]; 24 h,did not alter
same,cell growth,[6]; 72 h,did not alter
same,IC50,[7],263 nM
same,cell viability / cellular metabolic homoeostasis,[8],does not disturb cellular metabolic homoeostasis
CCCS(=O)(=O)Nc1ccc(F)c(C(=O)c2c[nH]c3ncc(-c4ccc(Cl)cc4)cc23)c1F [Vemurafenib],ERK phosphorylation,[9],inhibited ERK activation only in cell lines harbouring the mutant B-RafV600E allele
CC(=O)Nc1cccc(-n2c(=O)n(C3CC3)c(=O)c3c(Nc4ccc(I)cc4F)n(C)c(=O)c(C)c32)c1 [Trametinib],ERK phosphorylation,[9],blunted ERK phosphorylation in all cell lines
"CCC(=O)N[C@H](C(=O)O[C@H](C(C)C)[C@@H]1NC(=O)[C@H](C)N(C)C(=O)[C@H](C)NC(=O)C(C)N(C)C(=O)[C@@H](Cc2ccccc2)OC(=O)[C@@H](NC(C)=O)[C@@H](C(C)C)OC(=O)[C@H]([C@@H](C)OC)N(C)C1=O)[C@H](O)C(C)C (stereo partly drawn) [FR-red] (Ac-[X1][dPhLac][ξNMeA]A[NMeA][X1](Leu(3R-OH,Nα-propionyl))[NMeT](Me); ester 1-C)",IC50,[7],891 nM
